Laboratory results from patent US5135912A, “Natriuretic peptides from the pituitary prohormone proopiomelanocortin” (Tosoh Corporation, priority 1988, dated 1992).
Where no end group is shown, it is not given here.

Tested on: rats
Test: Natriuretic and diuretic effect of intravenous bolus injection in anesthetized rats
Type: in vivo, rat
Conditions: 30 to 60 min after minus 30 to 0 min before injection, mean ± SEM
Description: Diuretic and natriuretic activity of the peptides of this invention is assayed in male rats of the Sprague-Dawley or Long-Evans strains. Peptide or vehicle (for control purposes) is administered by intravenous bolus injection or by continuous infusion into one renal artery of animals anesthetized for the duration of the experiment, or by intramuscular or subcutaneous injection into animals only briefly anesthetized with ether and subsequently conscious and freely moving until completion of the experiment. Timed urine samples are collected for determination of volume and measurement of sodium and potassium concentration by flame photometry. Details of each method are given in Examples II to IV below.
The natriuretic and diuretic effect of intravenous bolus injection of peptides F15R, G13R and E19R was tested in male Sprague-Dawley or Long-Evans rats weighing 300-400 g. The animals were given Inactin®, 120 mg per kg body weight i.p. under light ether anesthesia. Following placement of a tracheal cannula, the right femoral vein was catheterized for infusion of 5% bovine serum albumin at a dose of 0.4% of body weight and at a rate of 6.0 ml/hour. Subsequently, normal saline was infused for the duration of the experiment at a rate of 2.0 ml/hour. The bladder was exposed through an abdominal incision and catheterized for urine collection. Serial 15-minute urine collections in preweighed vials were begun after a recovery period of 45 minutes. After collection of four control samples, the peptide in 0.1 ml of vehicle was injected into the femoral vein over a period of 1 minute and 6 to 10 further urine samples were collected. Urine volume was determined by weighing and urine sodium and potassium were assayed by flame photometry. All peptides produced natriuresis and diuresis reaching peak levels usually between 30 and 60 minutes after injection. The difference between urine volume and sodium excretion observed from 30 to 60 minutes after and 30 to 0 minutes before peptide administration was calculated for each rat as a measure of activity.

GNGDEQPLTPNPR [G13R]
Change in Sodium Excretion (i.v. bolus 0.100 nmol): 8.39 ± 4.41 μeq/30 minutes
Change in Urine Volume (i.v. bolus 0.100 nmol): 80.0 ± 29.2 μl/30 minutes
Change in Sodium Excretion (i.v. bolus 1.00 nmol): 12.48 ± 6.22 μeq/30 minutes
Change in Urine Volume (i.v. bolus 1.00 nmol): 62.0 ± 17.2 μl/30 minutes
